Test results as given in US11890287B2, “Therapeutic compounds and compositions for treating social disorders and substance use disorders” (Kinoxis Therapeutics Pty Ltd, priority 2015, dated 2024).
Several values for one entry are separate records, joined by “and”; a condition that tells them apart may be missing. Equal values may be shown once.

Experiments:
V1aR = molecular target: T1, V1aR (Homo sapiens, UniProt P37288); assay: IP1 signalling on V1aR HEK cells; assay type: cell-based
T1 construct: expressed in transfected cells; host or cells: HEK cells
T1 sequence (P37288 whole entry): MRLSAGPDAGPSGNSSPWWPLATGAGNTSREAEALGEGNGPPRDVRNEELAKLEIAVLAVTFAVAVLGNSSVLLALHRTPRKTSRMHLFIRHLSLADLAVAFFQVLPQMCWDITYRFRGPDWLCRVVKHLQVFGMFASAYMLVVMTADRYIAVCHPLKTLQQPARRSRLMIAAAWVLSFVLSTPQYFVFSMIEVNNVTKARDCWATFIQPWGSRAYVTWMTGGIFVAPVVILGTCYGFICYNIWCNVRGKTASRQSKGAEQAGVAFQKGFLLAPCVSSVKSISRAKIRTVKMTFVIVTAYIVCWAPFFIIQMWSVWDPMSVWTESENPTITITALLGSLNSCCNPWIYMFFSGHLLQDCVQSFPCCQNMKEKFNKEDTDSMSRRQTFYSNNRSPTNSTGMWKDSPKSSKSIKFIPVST

Sprague Dawley rats = assay: Acute toxicity, single intravenous bolus dose of 50 mg/kg, one week dose range finding study; assay type: in vivo
Method: The acute toxicity of SOC-1 test items was assessed in Sprague Dawley rats following intravenous administration of a single bolus dose of 50 mg/kg. A total of n=3 adult female rats were treated and then observed for 7 days prior to termination on Study Day 8 without necropsy.
The design of this acute single dose toxicity study in rats was adapted from OECD Guideline for Testing of Chemicals No. 420 Acute Oral Toxicity—Fixed Dose Procedure’ 2001 (3) and the test facility Standard Operating Procedure SP_T002 ‘Dose Range Finding Study in Rodents’. The study procedures were conducted as outlined below and according to related test facility Standard Operating Procedures.
Briefly, on completion of the acclimation period the study was commenced with administration of the treatment on Study Day 1. […] Body weights were also collected daily. On Study Day 8 the surviving animals were culled without necropsy.
The 5 mg/mL test item treatments were administered as a bolus intravenous injection in a dose volume of 10 mL/kg on Study Day 1 with restraint on conscious animals.
Morbidity and mortality observations were recorded daily during the acclimation period and on Day 8, and twice daily from Day 1 through Day 7.
Clinical observations were conducted at least once during the acclimation period. Clinical observations were conducted at least once daily from Day 1 up to and including the day prior to termination. On the day of treatment the animals were monitored continuously for the first 30 minutes post-treatment with formal observations made at 30 minutes, 1 hour and 4 hours post-treatment.
The clinical observations included examination of animals for changes in skin and fur, eyes and mucous membranes, respiratory and circulatory function, gait and posture, behaviour, tremors or convulsions and any other abnormal findings.
The clinical observations also included daily examination of the tail for any injection site reaction (for example, erythema or oedema).
Body weight was recorded once during the acclimation period and daily from the time of treatment on Day 1 to Day 8.

male Sprague Dawley rats = assay: Methamphetamine-primed reinstatement; assay type: in vivo, rat
Wistar rats = assay: Biotelemetry of body temperature and heart rate; assay type: in vivo, rat
Method: FIG. 7—The monitored body temperatures of Wistar rats administered vehicle, SOC-1 (5 mg/kg), or SOC-1 and the V1A receptor antagonist SR49059 (10 mg/kg).
FIG. 8—The monitored heart rates for Wistar rats administered vehicle, SOC-1 (5 mg/kg), or SOC-1 and the V1A receptor antagonist SR49059 (10 mg/kg).
However, the rats were not ataxic or comatose, they were simply in a relaxed quiescent state. […] Effects on body temperature and other behaviours are not blocked by pre-treatment with the vasopressin V1A receptor antagonist SR49059 (10 mg/kg). […] The data in these two studies was gathered with DataSciences International biotelemetry system.

human V1a receptor = human V1a receptor (Homo sapiens, UniProt P37288); assay: Orthosteric binding against [3H]AVP
Chain of human V1a receptor (P37288 whole entry): as above

## Cl.Cn1ncc2c1Nc1ccccc1NC2 [SOC-1]
V1aR
  agonist or positive allosteric modulator activity at V1aR: not an agonist or positive allosteric modulator of V1aRs
  antagonist activity at V1aR: weak antagonist activity
Sprague Dawley rats; 50 mg/kg IV
  body weight findings: no body weight findings that were considered treatment related
  clinical findings post-dose on Study Day 1: mild piloerection and reduced activity levels
  injection site reactions: no findings of injection site reactions
  morbidity and mortality: no unscheduled deaths or findings of morbidity
  time to resolution of clinical findings post-dose: ≤ 4 h
  tolerability: tolerated
Sprague Dawley rats; 50 mg/kg IV in Hartman's solution
  vocalisation and flinch reactions at the time of dosing: not associated with similar reactions
Sprague Dawley rats; 50 mg/kg IV, Study Day 1
  Body Weight, mean ± SD: 224.30 ± 7.45 g
  Body weight, individual rats: 228.4 grams and 215.7 grams and 228.8 grams
Sprague Dawley rats; 50 mg/kg IV, Study Day 2
  Body Weight, mean ± SD: 223.07 ± 4.37 g
  Body weight, individual rats: 220.9 grams and 220.2 grams and 228.1 grams
Sprague Dawley rats; 50 mg/kg IV, Study Day 3
  Body Weight, mean ± SD: 226.87 ± 4.33 g
  Body weight, individual rats: 225.1 grams and 223.7 grams and 231.8 grams
Sprague Dawley rats; 50 mg/kg IV, Study Day 4
  Body Weight, mean ± SD: 223.03 ± 5.34 g
  Body weight, individual rats: 229.2 grams and 220.1 grams and 219.8 grams
Sprague Dawley rats; 50 mg/kg IV, Study Day 5
  Body Weight, mean ± SD: 222.77 ± 4.75 g
  Body weight, individual rats: 219.0 grams and 221.2 grams and 228.1 grams
Sprague Dawley rats; 50 mg/kg IV, Study Day 6
  Body Weight, mean ± SD: 223.80 ± 3.70 g
  Body weight, individual rats: 220.7 grams and 222.8 grams and 227.9 grams
Sprague Dawley rats; 50 mg/kg IV, Study Day 7
  Body Weight, mean ± SD: 226.60 ± 2.57 g
  Body weight, individual rats: 225.7 grams and 224.6 grams and 229.5 grams
Sprague Dawley rats; 50 mg/kg IV, Study Day 8
  Body Weight, mean ± SD: 228.03 ± 3.81 g
  Body weight, individual rats: 229.1 grams and 223.8 grams and 231.2 grams
Sprague Dawley rats; 50 mg/kg IV, n 3
  Hunched posture or gait- mild (incidence): 1
  No abnormalities detected: (incidence): 0
  Piloerection- mild (incidence): 1
  Reduced activity (incidence): 3
Male Sprague Dawley rats; 10 mg/kg, vs extinction day prior, p=0.147
  lever-pressing activity, SOC-1 on its own (SOC-1+vehicle): did not significantly alter lever-pressing activity
Male Sprague Dawley rats; 2.5 (p=0.006), 5 and 10 mg/kg (p<0.005) prior to methamphetamine prime
  locomotor activity across reinstatement sessions: significantly lower
Male Sprague Dawley rats; 2.5, 5 and 10 mg/kg IP, each p<0.005 vs vehicle
  active lever pressing produced by a methamphetamine prime: significantly reduced active lever pressing
Male Sprague Dawley rats; vs previous extinction session, p=0.472
  locomotor activity, sole administration of SOC-1: did not significantly change locomotor activity
Wistar rats; 5 mg/kg
  body temperature: modest hypothermia
  heart rate: no effect
Wistar rats; 30° C.
  hypothermia at higher ambient temperatures: abolished
Human V1a receptor
  IC50: > 10 µM
